From US7115612B2, “Arylsulfonamides as antiviral agents” (Bayer Aktiengesellschaft, priority 2001, dated 2006) come the findings set out here.

One series relates to HCMV. Put plainly: Anti-HCMV cytopathogenicity test. Format: cell-based, human cytomegalovirus. The note with it: for EC50: Human betaherpesvirus 5, 144 h, inhibition of CPE by 50% in HCMV-infected HELF cells, M.O.I. 0.001–0.002, 6 days; for SI HCMV: selectivity index = CC50 (HELF)/EC50 (HCMV). On the procedure: (§1) Anti-HCMV (Anti-Human Cytomegalovirus) and anti-MCMV (Anti-Murine Cytomegalovirus) cytopathogenicity tests: The test compounds were employed as 50 millimolar (mM) solutions in dimethyl sulphoxide (DMSO). Ganciclovir, foscarnet and cidofovir served as reference compounds. Following the addition of in each case 2 μl of the 50, 5, 0.5 and 0.05 mM DMSO stock solutions to in each case 98μ of cell culture medium in row […], in duplicate determinations, 1:2 dilutions with in each case 50 μl of medium were prepared up to row 11 of the 96-well plate. The wells in rows 1 and 12 each contained 50 μl of medium. 150 μl of a suspension of 1×10^4 cells (human lung fibroblasts [HELF]) (row 1=cell control) or, in rows 2-12, a mixture of HCMV-infected and non-infected HELF cells (M.O.I.=0.001-0.002), i.e. 1-2 infected cells per 1000 non-infected cells, were then pipetted into each of the wells. Row 12 (without substance) served as virus control. The final test concentrations were 250-0.0005 μM. The plates were incubated at 37° C./5% CO2 for 6 days, i.e. until all cells in the virus controls had been infected (100% cytopathogenic effect [CPE]). The wells were then fixed and stained by adding a mixture of Formalin and Giemsa Stain (30 minutes), washed with doubly distilled water and dried in a drying cabinet at 50° C. The plates were then evaluated visually using an overhead microscope (plaque multiplier from Technomara). From the test plates, the following data were determined: EC50 (HCMV)=substance concentration in μM which inhibits the CPE (cytopathic effect) by 50% compared to the untreated virus control; SI (selectivity index)=CC50 (HELF)/EC50 (HCMV).

Series [1] can be described thus: Cytotoxicity on HELF cells in the anti-HCMV cytopathogenicity test. Format: cell-based. The settings on record: human lung fibroblasts (HELF cells), 6 days incubation, visual evaluation. On the procedure: as §1, with “The” for “Anti-HCMV (Anti-Human Cytomegalovirus) and anti-MCMV (Anti-Murine Cytomegalovirus) cytopathogenicity tests: The”, “CC50 (HELF)=substance” for “EC50 (HCMV)=substance”, “at which,” for “which inhibits the CPE (cytopathic effect) by 50%”, “cell control, no visible cytostatic effects on the cells were noticeable;” for “virus control; SI (selectivity index)=CC50 (HELF)/EC50 (HCMV).”

In another series the test system is MCMV. The experiment in a line: Anti-MCMV cytopathogenicity test. It is filed as cell-based, murine cytomegalovirus. The settings on record: for EC50: Murid betaherpesvirus 1, 120 h, MCMV-infected 3T3 mouse cells, M.O.I. 0.05–0.1, 5 days; for SI MCMV: selectivity index, 3T3 CC50 / MCMV EC50. The procedure: Anti-HCMV (Anti-Human Cytomegalovirus) and anti-MCMV (Anti-Murine Cytomegalovirus) cytopathogenicity tests:
(§2) The test compounds were employed as 50 millimolar (mM) solutions in dimethyl sulphoxide (DMSO). Ganciclovir, foscarnet and cidofovir served as reference compounds. Following the addition of in each case 2 μl of the 50, 5, 0.5 and 0.05 mM DMSO stock solutions to in each case 98μ of cell culture medium in row 2 A-H, in duplicate determinations, 1:2 dilutions with in each case 50 μl of medium were prepared up to row 11 of the 96-well plate. The wells in rows 1 and 12 each contained 50 μl of medium. 150 μl of a suspension of 1×10^4 cells (human lung fibroblasts [HELF]) (row 1=cell control) or, in rows 2–12, a mixture of HCMV-infected and non-infected HELF cells (M.O.I.=0.001–0.002), i.e. 1–2 infected cells per 1000 non-infected cells, were then pipetted into each of the wells. Row 12 (without substance) served as virus control. The final test concentrations were 250–0.0005 μM. The plates were incubated at 37° C./5% CO2 for 6 days, i.e. until all cells in the virus controls had been infected (100% cytopathogenic effect [CPE]). The wells were then fixed and stained by adding a mixture of Formalin and Giemsa Stain (30 minutes), washed with doubly distilled water and dried in a drying cabinet at 50° C. The plates were then evaluated visually using an overhead microscope (plaque multiplier from Technomara).
(§3) Compared to the process described above for HCMV, the anti-MCMV test was carried out with the following changes: a cell-free virus suspension was mixed with a concentrated cell suspension (3T3 mouse cells) and incubated for 15 minutes for adsorption of the viruses, and the suspension was then diluted with medium to 1.3×10^5 cells/ml with a final multiplicity of infection (M.O.I.) of from 0.05–0.1, and in each case 150 μl were dispensed into the wells. The incubation time was 5 days.

Series [2] in a line: Cytotoxicity on 3T3 cells in the anti-MCMV cytopathogenicity test. The settings on record: mouse, 3T3 mouse cells, 5 days incubation. Format: cell-based. The procedure:
as §2
CC50 (HELF)=substance concentration in μM at which, compared to the untreated cell control, no visible cytostatic effects on the cells were noticeable;
as §3

With `CN(C)c1cccc(-c2nc(-c3ccc(S(=O)(=O)Nc4cccc(NC(=O)C5(C)CC5)c4)cc3)no2)c1` [Example 2, N-(3-{[(4-{5-[3-(Dimethylamino)phenyl]-1,2,4-oxadiazol-3-yl}phenyl)sulphonyl]-amino}phenyl)-1-methylcyclopropanecarboxamide], in the series on HCMV, it took 50 nM to reach a half-maximal effect (EC50) and the “SI HCMV” value is <320. Further, the half-maximal cytotoxic concentration (CC50) at 6 days in series [1] was < 16 µM. Also, in the series on MCMV, the concentration giving a half-maximal response (EC50) was found to be 45 nM and the “SI MCMV” value was found to be 20. Further, the 50% cytotoxic concentration (CC50) at 5 days in series [2] came to 0.9 µM.
For the molecule `CC1(C(=O)Nc2cccc(NS(=O)(=O)c3ccc(-c4noc(-c5csc(N)n5)n4)cc3)c2)CC1` [Example 4], in the series on HCMV, the EC50 worked out at 10 nM and the “SI HCMV” value is given as >6300. Further, the CC50 at 6 days in series [1] was > 63 µM. In addition, in the series on MCMV, the concentration for a half-maximal effect (EC50) came to 15 nM and the “SI MCMV” value was 733. For the same molecule, the CC50 at 5 days in series [2] was determined as 11 µM.
As to `Cc1cccc(-c2nc(-c3ccc(S(=O)(=O)Nc4cccc(NC(=O)C5(C)CC5)c4)cc3)no2)n1` [Example 5, 1-Methyl-N-{3-[({4-[5-(6-methyl-2-pyridinyl)-1,2,4-oxadiazol-3-yl]phenyl}-sulphonyl)amino]phenyl}cyclopropanecarboxamide], in the series on HCMV, the EC50 turned out to be 16 nM and the “SI HCMV” value is >1000. In series [1], the cytotoxic concentration (CC50) at 6 days was > 16 µM. Moreover, in the series on MCMV, the EC50 was 14 nM and the “SI MCMV” value was >2214. For the same molecule, in series [2], the CC50 at 5 days is > 31 µM.
Turning to `Cc1cc(-c2nc(-c3ccc(S(=O)(=O)Nc4cccc(NC(=O)C5(C)CC5)c4)cc3)no2)[nH]n1` [Example 6, 1-Methyl-N-{3-[({4-[5-(3-methyl-1H-pyrazol-5-yl)-1,2,4-oxadiazol-3-yl]phenyl}-sulphonyl)amino]phenyl}cyclopropanecarboxamide], in the series with HCMV, the EC50 amounted to 20 nM and the “SI HCMV” value is on record as 2053. The molecule also yielded a 50% cytotoxic concentration (CC50) at 6 days in series [1] of 39 µM. Moreover, in the series with MCMV, the EC50 stood at 41 nM and the “SI MCMV” value is recorded as 71. The same molecule gave a CC50 at 5 days in series [2] of 2.9 µM.
Take `CC1(C(=O)Nc2cccc(NS(=O)(=O)c3ccc(-c4noc(-c5cscn5)n4)cc3)c2)CC1` [Example 7, 1-Methyl-N-{3-[({4-[5-(1,3-thiazol-4-yl)-1,2,4-oxadiazol-3-yl]phenyl}sulphonyl)-amino]phenyl}cyclopropanecarboxamide]: in the series on HCMV, the EC50 came out at 25 nM and the “SI HCMV” value is given as 1880. This molecule also showed a half-maximal cytotoxic concentration (CC50) at 6 days in series [1] of 47 µM. In addition, in the series with MCMV, the response was half-maximal at 25 nM (EC50) and the “SI MCMV” value is recorded as 480. This molecule also yielded a CC50 at 5 days in series [2] of 12 µM.
Turning to `Cc1cc(-c2nc(-c3ccc(S(=O)(=O)Nc4cccc(NC(=O)C5(C)CC5)c4)cc3)no2)nn1C` [Example 8, N-{3-[({4-[5-(1,5-Dimethyl-1H-pyrazol-3-yl)-1,2,4-oxadiazol-3-yl]phenyl}-sulphonyl)amino]phenyl}-1-methylcyclopropanecarboxamide], in the series on HCMV, the concentration giving a half-maximal response (EC50) is 20 nM and the “SI HCMV” value is on record as >110. The cytotoxic concentration (CC50) at 6 days in series [1] was > 2.2 µM. Further, in the series with MCMV, the concentration for a half-maximal effect (EC50) came to 24 nM and the “SI MCMV” value is >163. Moreover, the 50% cytotoxic concentration (CC50) at 5 days in series [2] is > 3.9 µM.
`CC1(C(=O)Nc2cccc(NS(=O)(=O)c3ccc(-c4noc(-c5nccc6ccccc56)n4)cc3)c2)CC1` [Example 10, N-{3-[({4-[5-(1-Isoquinolinyl)-1,2,4-oxadiazol-3-yl]phenyl}sulphonyl)-amino]phenyl}-1-methylcyclopropanecarboxamide]: in the series on HCMV, the concentration for a half-maximal effect (EC50) came out at 8 nM and the “SI HCMV” value is given as >488. For the same molecule, the CC50 at 6 days in series [1] was > 3.9 µM. In the series on MCMV, the 50% effective concentration (EC50) was 7 nM and the “SI MCMV” value is given as >975. Moreover, in series [2], the CC50 at 5 days is > 7.8 µM.
`Cc1nc(-c2nc(-c3ccc(S(=O)(=O)Nc4cccc(NC(=O)C5(C)CC5)c4)cc3)no2)cs1` [Example 11, 1-Methyl-N-{3-[({4-[5-(2-methyl-1,3-thiazol-4-yl)-1,2,4-oxadiazol-3-yl]phenyl}-sulphonyl)amino]phenyl}cyclopropanecarboxamide]: in the series on HCMV, the midpoint of the response, the EC50, lay at 15 nM and the “SI HCMV” value is reported as >1040. In addition, in series [1], the CC50 at 6 days was > 16 µM. Besides, in the series on MCMV, a half-maximal effect (EC50) was put at 2 nM and the “SI MCMV” value is >5850. Moreover, the CC50 at 5 days in series [2] is > 12 µM.
For the molecule `CC1(C(=O)Nc2cccc(NS(=O)(=O)c3ccc(-c4noc(-c5csc(CN)n5)n4)cc3)c2)CC1` [Example 12, N-(3-{[(4-{5-[2-(Aminomethyl)-1,3-thiazol-4-yl]-1,2,4-oxadiazol-3-yl}phenyl)-sulphonyl]amino}phenyl)-1-methylcyclopropanecarboxamide], in the series on HCMV, a half-maximal effect (EC50) was put at 58 nM and the “SI HCMV” value was determined as 241. Further, the CC50 at 6 days in series [1] is 14 µM. Besides, in the series on MCMV, a half-maximal effect (EC50) was put at 58 nM and the “SI MCMV” value came out at 121. This molecule yielded a CC50 at 5 days in series [2] of 7 µM.
Regarding `CC(C)(CF)C(=O)Nc1ccc(NS(=O)(=O)c2cccc(-c3noc(-c4ccccc4)n3)c2)cc1` [Example 13, 3-Fluoro-2,2-dimethyl-N-[4-({[3-(5-phenyl-1,2,4-oxadiazol-3-yl)phenyl]sulphonyl}-amino)phenyl]propanamide], in the series with HCMV, the EC50 stood at 40 nM and the “SI HCMV” value was <200. Further, the 50% cytotoxic concentration (CC50) at 6 days in series [1] was < 8 µM. Also, in the series on MCMV, the midpoint of the response, the EC50, lay at 30 nM and the “SI MCMV” value was <533. Also, the CC50 at 5 days in series [2] is < 16 µM.
As for `CC1(C(=O)Nc2ccc(NS(=O)(=O)c3cccc(-c4nnc(-c5ccccn5)s4)c3)cc2)CC1` [Example 131, 1-Methyl-N-{4-[({3-[5-(2-pyridinyl)-1,3,4-thiadiazol-2-yl]phenyl}sulphonyl)amino]phenyl}cyclopropanecarboxamide], in the series with HCMV, a half-maximal response (EC50) required 20 nM and the “SI HCMV” value was >1555. Further, in series [1], the 50% cytotoxic concentration (CC50) at 6 days is > 28 µM.
